Measured values published in ChEMBL document CHEMBL5576150, “Synthesis and Biological Evaluation of Pyrazole-Pyrimidones as a New Class of Correctors of the Cystic Fibrosis Transmembrane Conductance Regulator (CFTR)” (J Med Chem, 2024).
Values belong to the molecule of their own block, whether it stands above or below them. Activity calls are given as the source filed them. No cut-off for these calls is given here.

How the values were obtained:
[1] = tested on: Cystic fibrosis transmembrane conductance regulator (Homo sapiens), P13569 [F508del]; experiment: (§1) Corrector activity at 3xHA-tagged full-length human CFTR F508del mutant expressed in human CFBE41o- cells assessed as restoration of plasma membrane density of channel incubated for 24 hrs in presence of VX-809/N-(5-(4-fluorobenzyl)thiazol-2-yl)-2,5-dimethylfuran-3-carboxamide by ELISA; type: cell membranes; conditions: filed as activator, dose 10.0 µM
Chain of Cystic fibrosis transmembrane conductance regulator (Homo sapiens), P13569 [F508del] (P13569 as listed by the source): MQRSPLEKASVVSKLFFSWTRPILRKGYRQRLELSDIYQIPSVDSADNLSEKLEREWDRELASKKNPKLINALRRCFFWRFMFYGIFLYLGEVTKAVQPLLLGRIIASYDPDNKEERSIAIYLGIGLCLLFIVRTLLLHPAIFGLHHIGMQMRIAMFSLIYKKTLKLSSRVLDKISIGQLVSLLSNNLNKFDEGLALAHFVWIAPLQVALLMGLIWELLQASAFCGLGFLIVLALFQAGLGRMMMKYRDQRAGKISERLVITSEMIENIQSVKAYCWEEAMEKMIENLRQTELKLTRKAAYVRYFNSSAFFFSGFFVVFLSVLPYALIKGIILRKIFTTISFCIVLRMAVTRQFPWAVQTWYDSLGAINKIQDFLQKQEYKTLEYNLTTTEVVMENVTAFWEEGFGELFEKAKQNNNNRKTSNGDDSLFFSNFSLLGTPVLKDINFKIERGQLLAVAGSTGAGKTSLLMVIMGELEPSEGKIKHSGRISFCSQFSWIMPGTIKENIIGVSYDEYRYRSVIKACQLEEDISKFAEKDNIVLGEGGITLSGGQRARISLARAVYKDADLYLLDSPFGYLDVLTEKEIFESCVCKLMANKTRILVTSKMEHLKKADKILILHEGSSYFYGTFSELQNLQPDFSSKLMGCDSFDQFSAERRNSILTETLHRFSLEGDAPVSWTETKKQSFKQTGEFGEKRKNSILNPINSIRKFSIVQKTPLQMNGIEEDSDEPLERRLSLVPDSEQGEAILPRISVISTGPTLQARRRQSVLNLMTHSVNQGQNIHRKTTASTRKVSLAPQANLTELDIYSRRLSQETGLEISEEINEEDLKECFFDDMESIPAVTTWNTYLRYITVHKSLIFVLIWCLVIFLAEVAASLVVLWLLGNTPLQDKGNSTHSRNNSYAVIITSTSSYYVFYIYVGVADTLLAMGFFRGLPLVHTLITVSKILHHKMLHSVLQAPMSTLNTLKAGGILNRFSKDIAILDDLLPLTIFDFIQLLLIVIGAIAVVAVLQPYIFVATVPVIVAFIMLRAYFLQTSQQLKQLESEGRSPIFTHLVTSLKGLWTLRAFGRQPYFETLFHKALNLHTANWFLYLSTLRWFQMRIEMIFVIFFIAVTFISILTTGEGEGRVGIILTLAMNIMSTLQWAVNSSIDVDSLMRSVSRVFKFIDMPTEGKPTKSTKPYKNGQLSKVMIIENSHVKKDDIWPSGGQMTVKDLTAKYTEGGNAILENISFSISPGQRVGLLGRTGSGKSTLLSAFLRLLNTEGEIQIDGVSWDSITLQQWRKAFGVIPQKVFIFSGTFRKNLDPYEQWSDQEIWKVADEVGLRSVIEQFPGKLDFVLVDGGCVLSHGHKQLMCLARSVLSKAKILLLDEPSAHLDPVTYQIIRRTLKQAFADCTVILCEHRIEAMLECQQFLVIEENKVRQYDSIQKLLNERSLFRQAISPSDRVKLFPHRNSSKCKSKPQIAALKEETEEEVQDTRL

[2] = molecular target: Cystic fibrosis transmembrane conductance regulator (Homo sapiens, UniProt P13569, F508DEL); experiment: as §1; type: cell membranes
Chain of Cystic fibrosis transmembrane conductance regulator (P13569 as listed by the source): as above

[3] = tested on: Cystic fibrosis transmembrane conductance regulator (Homo sapiens), P13569 [F508del]; experiment: Corrector activity at 3xHA-tagged full-length human CFTR F508del mutant expressed in human CFBE41o- cells assessed as functional rescue of channel by measuring anion transport measured after 24 hrs in presence of VX-809/N-(5-(4-fluorobenzyl)thiazol-2-yl)-2,5-dimethylfuran-3-carboxamide by halide-sensitive YFP quenching assay relative to combination of VX-809/N-(5-(4-fluorobenzyl)thiazol-2-yl)-2,5-dimethylfuran-3-carboxamide; type: cell-based; conditions: filed as activator
[4] = tested on: Cystic fibrosis transmembrane conductance regulator (Homo sapiens), P13569 [F508del]; experiment: (§2) Corrector activity at 3xHA-tagged full-length human CFTR F508del mutant expressed in human CFBE41o- cells assessed as rescue of forskolin/VX-770-induced transepithelial short-circuit current measured after 24 hrs in presence of VX-809/N-(5-(4-fluorobenzyl)thiazol-2-yl)-2,5-dimethylfuran-3-carboxamide by electrophysiological method relative to wild-type CFTR activity; type: cell-based; conditions: filed as activator
[5] = tested on: Cystic fibrosis transmembrane conductance regulator (Homo sapiens), P13569 [F508del]; experiment: Corrector activity at 3xHA-tagged full-length human CFTR F508del mutant expressed in human CFBE41o- cells assessed as fractional plasma membrane density at 10 uM in presence of VX-809/N-(5-(4-fluorobenzyl)thiazol-2-yl)-2,5-dimethylfuran-3-carboxamide relative to forskoli-stimulated wild-type CFTR expressed in human CFBE41o- cells; type: cell membranes; conditions: filed as activator
[6] = tested on: Cystic fibrosis transmembrane conductance regulator (Homo sapiens), P13569 [F508del]; experiment: as §2, with “[…]” for “rescue of”, “at 10 uM” for “measured after 24 hrs”, “control” for “wild-type CFTR activity”; type: cell-based; parameters: scale not given: the % may be the effect or the level left; conditions: filed as activator
[7] = tested on: Cystic fibrosis transmembrane conductance regulator (Homo sapiens), P13569 [F508del]; experiment: Corrector activity at CFTR F508del mutant in patient-derived human HBE cells assessed as forskolin/VX-770-induced transepithelial short-circuit current in presence of VX-809/N-(5-(4-fluorobenzyl)thiazol-2-yl)-2,5-dimethylfuran-3-carboxamide by electrophysiological method (reference value: 16 %); type: cell-based; conditions: filed as activator
[8] = tested on: Cystic fibrosis transmembrane conductance regulator (Homo sapiens), P13569 [S13F]; experiment: Corrector activity at 3xHA-tagged full-length human CFTR S13F mutant expressed in human CFBE41o- cells assessed as restoration of plasma membrane density of channel in presence of VX-809/N-(5-(4-fluorobenzyl)thiazol-2-yl)-2,5-dimethylfuran-3-carboxamide by ELISA; type: cell membranes; conditions: filed as activator
Chain of Cystic fibrosis transmembrane conductance regulator (Homo sapiens), P13569 [S13F] (P13569 whole entry S13F): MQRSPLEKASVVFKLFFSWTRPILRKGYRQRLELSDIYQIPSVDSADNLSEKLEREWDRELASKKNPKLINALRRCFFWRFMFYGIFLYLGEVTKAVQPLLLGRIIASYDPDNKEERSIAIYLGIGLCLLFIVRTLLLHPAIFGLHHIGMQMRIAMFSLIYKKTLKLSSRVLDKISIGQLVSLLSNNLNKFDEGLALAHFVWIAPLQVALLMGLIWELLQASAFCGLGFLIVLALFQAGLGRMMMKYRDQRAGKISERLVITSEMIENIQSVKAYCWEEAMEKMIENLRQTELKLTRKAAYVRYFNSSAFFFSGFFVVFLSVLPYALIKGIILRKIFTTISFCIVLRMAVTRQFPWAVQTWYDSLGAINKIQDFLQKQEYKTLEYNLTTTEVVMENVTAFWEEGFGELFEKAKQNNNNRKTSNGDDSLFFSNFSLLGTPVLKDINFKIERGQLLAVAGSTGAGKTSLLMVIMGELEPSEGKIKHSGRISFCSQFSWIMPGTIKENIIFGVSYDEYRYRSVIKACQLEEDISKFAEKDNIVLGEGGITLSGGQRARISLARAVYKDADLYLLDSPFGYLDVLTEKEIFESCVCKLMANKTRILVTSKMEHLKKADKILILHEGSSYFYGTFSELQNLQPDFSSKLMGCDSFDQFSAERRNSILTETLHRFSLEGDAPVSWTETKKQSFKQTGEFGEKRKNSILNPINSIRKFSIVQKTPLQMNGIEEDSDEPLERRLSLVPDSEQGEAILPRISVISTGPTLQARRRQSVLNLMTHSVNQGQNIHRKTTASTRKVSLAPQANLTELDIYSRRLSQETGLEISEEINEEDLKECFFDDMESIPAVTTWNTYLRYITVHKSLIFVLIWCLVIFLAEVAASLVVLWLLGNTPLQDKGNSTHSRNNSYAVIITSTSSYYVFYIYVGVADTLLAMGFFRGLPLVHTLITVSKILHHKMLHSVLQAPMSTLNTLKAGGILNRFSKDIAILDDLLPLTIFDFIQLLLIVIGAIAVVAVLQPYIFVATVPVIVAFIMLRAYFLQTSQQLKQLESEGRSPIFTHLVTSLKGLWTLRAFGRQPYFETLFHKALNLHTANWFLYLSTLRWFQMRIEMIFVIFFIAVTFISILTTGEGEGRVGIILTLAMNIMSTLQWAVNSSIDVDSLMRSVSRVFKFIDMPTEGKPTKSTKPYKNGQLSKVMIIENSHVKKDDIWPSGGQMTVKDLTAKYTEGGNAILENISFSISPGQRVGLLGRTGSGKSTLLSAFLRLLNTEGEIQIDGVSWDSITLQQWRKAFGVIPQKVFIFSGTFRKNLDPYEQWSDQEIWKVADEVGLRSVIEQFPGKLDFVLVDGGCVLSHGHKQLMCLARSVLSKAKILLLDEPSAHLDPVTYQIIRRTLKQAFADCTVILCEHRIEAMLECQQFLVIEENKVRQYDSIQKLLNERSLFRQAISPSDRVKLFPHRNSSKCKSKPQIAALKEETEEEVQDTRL

[9] = tested on: Cystic fibrosis transmembrane conductance regulator (Homo sapiens), P13569 [S492F]; experiment: Corrector activity at 3xHA-tagged full-length human CFTR S492F mutant expressed in human CFBE41o- cells assessed as restoration of plasma membrane density of channel in presence of VX-809/N-(5-(4-fluorobenzyl)thiazol-2-yl)-2,5-dimethylfuran-3-carboxamide by ELISA; type: cell membranes; conditions: filed as activator
Chain of Cystic fibrosis transmembrane conductance regulator (Homo sapiens), P13569 [S492F] (P13569 whole entry S492F): as the sequence (P13569 whole entry S13F) above, with F13S, S492F counted along it

[10] = tested on: Cystic fibrosis transmembrane conductance regulator (Homo sapiens), P13569 [M1101K]; experiment: Corrector activity at 3xHA-tagged full-length human CFTR M1101K mutant expressed in human CFBE41o- cells assessed as restoration of plasma membrane density of channel in presence of VX-809/N-(5-(4-fluorobenzyl)thiazol-2-yl)-2,5-dimethylfuran-3-carboxamide by ELISA relative to wild-type CFTR level; type: cell membranes; conditions: filed as activator
Chain of Cystic fibrosis transmembrane conductance regulator (Homo sapiens), P13569 [M1101K] (P13569 whole entry M1101K): as the sequence (P13569 whole entry S13F) above, with F13S, M1101K counted along it

[11] = tested on: Cystic fibrosis transmembrane conductance regulator (Homo sapiens), P13569 [N1303K]; experiment: Corrector activity at 3xHA-tagged full-length human CFTR N1303K mutant expressed in human CFBE41o- cells assessed as restoration of plasma membrane density of channel in presence of VX-809/N-(5-(4-fluorobenzyl)thiazol-2-yl)-2,5-dimethylfuran-3-carboxamide by ELISA relative to wild-type CFTR level; type: cell membranes; conditions: filed as activator
Chain of Cystic fibrosis transmembrane conductance regulator (Homo sapiens), P13569 [N1303K] (P13569 whole entry N1303K): as the sequence (P13569 whole entry S13F) above, with F13S, N1303K counted along it

[12] = tested on: Cystic fibrosis transmembrane conductance regulator (Homo sapiens), P13569 [R560T]; experiment: Corrector activity at 3xHA-tagged full-length human CFTR R560T mutant expressed in human CFBE41o- cells assessed as restoration of plasma membrane density of channel in presence of VX-809/N-(5-(4-fluorobenzyl)thiazol-2-yl)-2,5-dimethylfuran-3-carboxamide by ELISA; type: cell membranes
Chain of Cystic fibrosis transmembrane conductance regulator (Homo sapiens), P13569 [R560T] (P13569 whole entry R560T): as the sequence (P13569 whole entry S13F) above, with F13S, R560T counted along it

[13] = tested on: Cystic fibrosis transmembrane conductance regulator (Homo sapiens), P13569 [S13F]; experiment: Corrector activity at 3xHA-tagged full-length human CFTR S13F mutant expressed in human CFBE41o- cells assessed as restoration of plasma membrane density of channel in presence of N-(5-(4-fluorobenzyl)thiazol-2-yl)-2,5-dimethylfuran-3-carboxamide incubated for 24 hrs by ELISA; type: cell membranes; conditions: filed as activator
[14] = tested on: Cystic fibrosis transmembrane conductance regulator (Homo sapiens), P13569 [S13F]; experiment: Corrector activity at 3xHA-tagged full-length human CFTR S13F mutant expressed in human CFBE41o- cells assessed as restoration of plasma membrane density of channel in presence of VX-809 incubated for 24 hrs by ELISA; type: cell membranes; conditions: filed as activator
[15] = tested on: Cystic fibrosis transmembrane conductance regulator (Homo sapiens), P13569 [S13F]; experiment: Corrector activity at 3xHA-tagged full-length human CFTR S13F mutant expressed in human CFBE41o- cells assessed as restoration of plasma membrane density of channel in presence of VX-661 incubated for 24 hrs by ELISA; type: cell membranes; conditions: filed as activator
[16] = tested on: Cystic fibrosis transmembrane conductance regulator (Homo sapiens), P13569 [S492F]; experiment: Corrector activity at 3xHA-tagged full-length human CFTR S492F mutant expressed in human CFBE41o- cells assessed as restoration of plasma membrane density of channel in presence of N-(5-(4-fluorobenzyl)thiazol-2-yl)-2,5-dimethylfuran-3-carboxamide incubated for 24 hrs by ELISA; type: cell membranes; conditions: filed as activator
[17] = tested on: Cystic fibrosis transmembrane conductance regulator (Homo sapiens), P13569 [S492F]; experiment: Corrector activity at 3xHA-tagged full-length human CFTR S492F mutant expressed in human CFBE41o- cells assessed as restoration of plasma membrane density of channel in presence of VX-809 incubated for 24 hrs by ELISA; type: cell membranes; conditions: filed as activator
[18] = tested on: Cystic fibrosis transmembrane conductance regulator (Homo sapiens), P13569 [S492F]; experiment: Corrector activity at 3xHA-tagged full-length human CFTR S492F mutant expressed in human CFBE41o- cells assessed as restoration of plasma membrane density of channel in presence of VX-661 incubated for 24 hrs by ELISA; type: cell membranes; conditions: filed as activator
[19] = tested on: Cystic fibrosis transmembrane conductance regulator (Homo sapiens), P13569 [F508del]; experiment: Corrector activity at 3xHA-tagged full-length human CFTR F508del mutant expressed in human CFBE41o- cells assessed as restoration of plasma membrane density of channel in presence of N-(5-(4-fluorobenzyl)thiazol-2-yl)-2,5-dimethylfuran-3-carboxamide incubated for 24 hrs by ELISA; type: cell membranes; conditions: filed as activator
[20] = tested on: Cystic fibrosis transmembrane conductance regulator (Homo sapiens), P13569 [F508del]; experiment: Corrector activity at 3xHA-tagged full-length human CFTR F508del mutant expressed in human CFBE41o- cells assessed as restoration of plasma membrane density of channel incubated for 24 hrs in presence of VX-809 by ELISA; type: cell membranes; conditions: filed as activator
[21] = tested on: Cystic fibrosis transmembrane conductance regulator (Homo sapiens), P13569 [F508del]; experiment: Corrector activity at 3xHA-tagged full-length human CFTR F508del mutant expressed in human CFBE41o- cells assessed as restoration of plasma membrane density of channel incubated for 24 hrs in presence of VX-661 by ELISA; type: cell membranes; conditions: filed as activator
[22] = tested on: Cystic fibrosis transmembrane conductance regulator (Homo sapiens), P13569 [S13F]; experiment: Corrector activity at 3xHA-tagged full-length human CFTR S13F mutant expressed in human CFBE41o- cells assessed as restoration of plasma membrane density of channel incubated for 24 hrs in presence of VX-445 by ELISA; type: cell membranes
[23] = tested on: Cystic fibrosis transmembrane conductance regulator (Homo sapiens), P13569 [S492F]; experiment: Corrector activity at 3xHA-tagged full-length human CFTR S492F mutant expressed in human CFBE41o- cells assessed as restoration of plasma membrane density of channel incubated for 24 hrs in presence of VX-445 by ELISA; type: cell membranes
[24] = tested on: Cystic fibrosis transmembrane conductance regulator (Homo sapiens), P13569 [F508del]; experiment: Corrector activity at 3xHA-tagged full-length human CFTR F508del mutant expressed in human CFBE41o- cells assessed as restoration of plasma membrane density of channel incubated for 24 hrs in presence of VX-445 by ELISA; type: cell membranes
[25] = tested on: Cystic fibrosis transmembrane conductance regulator (Homo sapiens), P13569 [S13F]; experiment: Corrector activity at 3xHA-tagged full-length human CFTR S13F mutant expressed in human CFBE41o- cells assessed as restoration of plasma membrane density of channel at 10 uM incubated for 24 hrs in presence of VX-445 by ELISA; type: cell membranes
[26] = tested on: Cystic fibrosis transmembrane conductance regulator (Homo sapiens), P13569 [S492F]; experiment: Corrector activity at 3xHA-tagged full-length human CFTR S492F mutant expressed in human CFBE41o- cells assessed as restoration of plasma membrane density of channel at 10 uM incubated for 24 hrs in presence of VX-661/VX-445 by ELISA; type: cell membranes; conditions: filed as activator
[27] = tested on: Cystic fibrosis transmembrane conductance regulator (Homo sapiens), P13569 [F508del]; experiment: (§3) Corrector activity at 3xHA-tagged full-length human CFTR F508del mutant expressed in human CFBE41o- cells assessed as restoration of plasma membrane density of channel at 10 uM incubated for 24 hrs in presence of VX-661/VX-445 by ELISA; type: cell membranes; conditions: filed as activator
[28] = tested on: Cystic fibrosis transmembrane conductance regulator (Homo sapiens), P13569 [S492F]; experiment: as §2, with “S492F” for “F508del”, “current at 10 uM” for “current”, “method” for “method relative to wild-type CFTR activity”; type: cell-based; conditions: filed as activator
[29] = tested on: Cystic fibrosis transmembrane conductance regulator (Homo sapiens), P13569 [F508del]; experiment: as §3, with “VX-809/N-(5-(4-fluorobenzyl)thiazol-2-yl)-2,5-dimethylfuran-3-carboxamide” for “VX-661/VX-445”, “ELISA relative to wild-type CFTR level” for “ELISA”; type: cell membranes; conditions: filed as activator

Activity [1]: Dose-Dependent Effect
EC50 [2]: 3.05 µM
Activity [3]: 250%
Activity [4]: 80%
Activity [5]: 84%
Activity [6]: -14%
Activity [7]: 50%
Activity [8]: Active
Activity [9]: Active
Activity [10]: 15%
Activity [11]: 15%
Activity [12]: inactive
Activity [13]: Active
Activity [14]: Active
Activity [15]: Active
Activity [16]: Active
Activity [17]: Active
Activity [18]: Active
Activity [19]: Active
Activity [20]: Active
Activity [21]: Active
Activity [22]: inactive
Activity [23]: inactive
Activity [24]: inactive
Activity [25]: inactive
Activity [26]: Active
Activity [27]: Active
Activity [28]: Active
SMILES: O=C(Nc1cc(-c2cccs2)nn1-c1nc2c(c(=O)[nH]1)CCCC2)C1(c2ccc(Cl)cc2)CCCC1

Activity [29]: 67%
SMILES: Cc1cc(=O)[nH]c(-n2nc(-c3ccccc3)cc2NC(=O)C2(c3ccc(Cl)cc3)CCCC2)n1
